These results are taken from patent US7402606B2, “Derivatives of 1-(oxoaminoacetyl) pentylcarbamate as cathepsin K inhibitors for the treatment of bone loss” (SmithKline Beecham Corporation, priority 2002, dated 2008).

Like-named read-outs stand apart in the source and are kept apart here.

The target in the assay is T1, human cathepsin K (Homo sapiens, UniProt P43235).
T1 construct: The proform of cathepsin K was converted to mature cathepsin K by brief exposure to pH 4; made in house; host or cells: baculovirus; Trichoplusia ni High Five cells (virus raised in Sf-9)
T1 sequence (P43235 115-329): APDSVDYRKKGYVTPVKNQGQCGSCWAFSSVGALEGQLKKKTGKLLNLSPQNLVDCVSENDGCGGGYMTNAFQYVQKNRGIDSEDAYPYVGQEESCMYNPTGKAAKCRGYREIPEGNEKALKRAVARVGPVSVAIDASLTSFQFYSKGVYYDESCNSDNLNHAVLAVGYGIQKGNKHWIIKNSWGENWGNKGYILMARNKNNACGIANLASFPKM
Put plainly: Cathepsin K inhibition assay, human recombinant enzyme, fluorogenic substrate Cbz-Phe-Arg-AMC. Type of assay: biochemical. Conditions: read-out: h Cat K IC50. A digest of the protocol:
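Recombinant human cathepsin K (baculovirus/insect-cell proform, activated at pH 4 with 5 mM L-cysteine) assayed with 10 μM Cbz-Phe-Arg-AMC, 10% DMSO, 30 °C.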

Consider `CCCC[C@H](NC(=O)O[C@@H]1CN(c2nnc(C(F)(F)F)s2)CC1(C)C)C(=O)C(=O)Nc1ccn[nH]1` [Example 82, (3S)-4,4-Dimethyl-1-[5-(trifluoromethyl)-1,3,4-thiadiazol-2-yl]pyrrolidinyl-(1S)-1-[oxo(1H-pyrazol-5-ylamino)acetyl]pentylcarbamate], for which the half-inhibitory concentration (IC50) runs as follows: (Table 1, human cathepsin K) 100 to 1000 pM; (Table 2, human cathepsin K) 100 to 1000 pM.
Take `CCCC[C@H](NC(=O)O[C@@H]1CN(C(=O)Nc2ccc(C(F)(F)F)cc2)CC1(C)C)C(=O)C(=O)Nc1ccn[nH]1` [Example 71, (3S)-4,4-dimethyl-1-{[4-(trifluoromethyl)anilino]carbonyl}pyrrolidinyl (1S)-1-[oxo(1H-pyrazol-5-ylamino)acetyl]pentylcarbamate]: the half-inhibitory concentration (IC50) runs as follows: (Table 1, human cathepsin K) 100 to 1000 pM; (Table 2, human cathepsin K) 100 to 1000 pM.

Usually IC50 stands for the concentration that inhibits the measured activity by half.
